Test: surface tension of components
Format: physicochemical

Molecule | surface tension σ
perfluoroalkylethanol oxethylate | 19 mNm
CC[N+]1(CC)CC[N+](CC)(CC)CC1.O=C([O-])C(F)(F)C(F)(F)C(F)(F)C(F)(F)C(F)(F)C(F)(F)C(F)(F)F.O=C([O-])C(F)(F)C(F)(F)C(F)(F)C(F)(F)C(F)(F)C(F)(F)C(F)(F)F [tetraethylpiperazinium salt of perfluorooctanoic acid] | 15.9 mNm
Fc1c(F)c(F)c2c(c1F)c(F)c(F)c1c(F)c(F)c(F)c(F)c12 [perfluorophenanthrene] | 19 mNm
